Read-outs that look alike come from different tables or passages of the source.
Key:
SREBP-2 = SREBP-2 (Homo sapiens (Human), UniProt Q12772); experiment: In vitro assay SREBP-2: PathHunter U2OS SREBP-2 Nuclear Translocation Cell Line, U18666A-stimulated; format: cell-based
LXRβ = LXRβ (Homo sapiens (Human), UniProt P55055); experiment: In vitro assay LXRβ: PathHunter NHR CHO cells, LXRβ / Steroid Receptor Co-activator Peptide enzyme fragment complementation; format: cell-based; details: PathHunter NHR CHO cells, full-length human LXRβ and SRCP, chemiluminescent signal; read-out: LXRβ PPI
Outline: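 Co-activator recruitment measured by chemiluminescence after signal generation. The CHO line carries full-length human LXRβ tagged with ProLink and an SRCP–enzyme acceptor fusion in the nucleus; cells sat overnight at 37° C before testing, in charcoal-dextran filtered serum medium with 1% final vehicle.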

[1] = PathHunter U2OS SREBP-2 nuclear translocation cells, U18666A 10 μM, overnight (16 hours)

Chain of LXRβ (P55055 whole entry, the tested form may be a part): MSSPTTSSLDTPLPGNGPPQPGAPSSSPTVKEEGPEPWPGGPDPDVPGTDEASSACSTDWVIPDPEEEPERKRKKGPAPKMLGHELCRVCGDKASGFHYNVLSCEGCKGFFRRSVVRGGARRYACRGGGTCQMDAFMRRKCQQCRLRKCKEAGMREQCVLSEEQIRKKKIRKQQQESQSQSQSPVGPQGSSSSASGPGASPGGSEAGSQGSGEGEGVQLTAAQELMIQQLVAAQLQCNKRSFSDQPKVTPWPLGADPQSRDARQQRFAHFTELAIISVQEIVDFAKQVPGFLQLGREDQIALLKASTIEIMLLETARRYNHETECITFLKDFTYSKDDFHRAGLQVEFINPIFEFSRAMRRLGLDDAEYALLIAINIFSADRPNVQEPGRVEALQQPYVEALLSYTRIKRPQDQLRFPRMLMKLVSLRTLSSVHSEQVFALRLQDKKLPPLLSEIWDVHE

SMILES	IC50 (SREBP-2; [1]) [µM]	EC50 (LXRβ) [µM]	IC50 (SREBP-2) [µM]
C=CCN1C[C@H]2CON(C(=O)CC[C@@H](C)[C@H]3CC[C@H]4[C@@H]5CC=C6C[C@@H](O)CC[C@]6(C)[C@H]5CC[C@]34C)[C@H]2C1 [Example 44, (R)-1-((3aR,6aR)-5-allylhexahydro-1H-pyrrolo[3,4-c]isoxazol-1-yl)-4-((3S,8S,9S,10R,13R,14S,17R)-3-hydroxy-10,13-dimethyl-2,3,4,7,8,9,10,11,12,13,14,15,16,17-tetradecahydro-1H-cyclopenta[a]phenanthren-17-yl)pentan-1-one]	0.25 to 1	> 10	–
Cc1nnc(C(=O)N2CCN(C(=O)CC[C@@H](C)[C@H]3CC[C@H]4[C@@H]5CC=C6C[C@@H](O)CC[C@]6(C)[C@H]5CC[C@]34C)CC2)o1 [Example 540, (R)-4-((3S,8S,9S,10R,13R,14S,17R)-3-hydroxy-10,13-dimethyl-2,3,4,7,8,9,10,11,12,13,14,15,16,17-tetradecahydro-1H-cyclopenta[a]phenanthren-17-yl)-1-(4-(5-methyl-1,3,4-oxadiazole-2-carbonyl)piperazin-1-yl)pentan-1-one]	< 0.25	> 10	–
CON(C)C(=O)C(C)C[C@@H](C)[C@H]1CC[C@H]2[C@@H]3CC=C4C[C@@H](O)CC[C@]4(C)[C@H]3CC[C@]12C (stereo partly drawn) [Example 142, (4R)-4-((3S,8S,9S,10R,13R,14S,17R)-3-hydroxy-10,13-dimethyl-2,3,4,7,8,9,10,11,12,13,14,15,16,17-tetradecahydro-1H-cyclopenta[a]phenanthren-17-yl) -N-methoxy-N,2-dimethylpentanamide]	–	1 to 10	1 to 10
C[C@H](CCC(=O)N1CCC(C(F)(F)F)CC1)[C@H]1CC[C@H]2[C@@H]3CC=C4C[C@@H](O)CC[C@]4(C)[C@H]3CC[C@]12C [Example 82, (R)-4-((3S,8S,9S,10R,13R,14S,17R)-3-hydroxy-10,13-dimethyl-2,3,4,7,8,9,10,11,12,13,14,15,16,17-tetradecahydro-1H-cyclopenta[a]phenanthren-17-yl)-1-(4-(trifluoromethyl)piperidin-1-yl)pentan-1-one]	< 0.25	> 10	–
C[C@H](CCC(=O)N1CCC(OC(=O)N(C)C)CC1)[C@H]1CC[C@H]2[C@@H]3CC=C4C[C@@H](O)CC[C@]4(C)[C@H]3CC[C@]12C [Example 286, 1-((R)-4-((3S,8S,9S,10R,13R,14S,17R)-3-hydroxy-10,13-dimethyl-2,3,4,7,8,9,10,11,12,13,14,15,16,17-tetradecahydro-1H-cyclopenta[a]phenanthren-17-yl)pentanoyl)piperidin-4-yl dimethylcarbamate]	< 0.25	> 10	–
C[C@H](CCC(=O)N1CCN(c2ncccc2OC2CC2)CC1)[C@H]1CC[C@H]2[C@@H]3CC=C4C[C@@H](O)CC[C@]4(C)[C@H]3CC[C@]12C [Example 621, (R)-1-(4-(3-cyclopropoxypyridin-2-yl)piperazin-1-yl)-4-((3S,8S,9S,10R,13R,14S,17R)-3-hydroxy-10,13-dimethyl-2,3,4,7,8,9,10,11,12,13,14,15,16,17-tetradecahydro-1H-cyclopenta[a]phenanthren-17-yl)pentan-1-one]	< 0.25	> 10	–
C[C@H](CCC(=O)N1CCN(C(=O)N(C)C2CC2)CC1)[C@H]1CC[C@H]2[C@@H]3CC=C4C[C@@H](O)CC[C@]4(C)[C@H]3CC[C@]12C [Example 211, N-cyclopropyl-4-((R)-4-((3S,8S,9S,10R,13R,14S,17R)-3-hydroxy-10,13-dimethyl-2,3,4,7,8,9,10,11,12,13,14,15,16,17-tetradecahydro-1H-cyclopenta[a]phenanthren-17-yl)pentanoyl)-N-methylpiperazine-1-carboxamide]	–	> 10	< 0.25
Cc1nn(C)cc1N1CCN(C(=O)CC[C@@H](C)[C@H]2CC[C@H]3[C@@H]4CC=C5C[C@@H](O)CC[C@]5(C)[C@H]4CC[C@]23C)CC1 [Example 604, (4R)-4-[(1R,3aS,3bS,7S,9aR,9bS,11aR)-7-hydroxy-9a,11a-dimethyl-1H,2H,3H,3aH,3bH,4H,6H,7H,8H,9H,9aH,9bH,10H,11H,11aH-cyclopenta[a]phenanthren-1-yl]-1-[4-(1,3-dimethyl-1H-pyrazol-4-yl)piperazin-1-yl]pentan-1-one]	< 0.25	> 10	–
COc1ccnc(CC[C@@H](C)[C@H]2CC[C@H]3[C@@H]4CC=C5C[C@@H](O)CC[C@]5(C)[C@H]4CC[C@]23C)c1 [Example 602, (3S,8S,9S,10R,13R,14S,17R)-17-((R)-4-(4-methoxypyridin-2-yl)butan-2-yl)-10,13-dim ethyl-2,3,4,7,8,9,10,11,12,13,14,15,16,17-tetradecahydro-1H-cyclopenta[a]phenanthren-3-ol]	< 0.25	0.25 to 1	–
Cc1nnc(N2CCN(C(=O)CC[C@@H](C)[C@H]3CC[C@H]4[C@@H]5CC=C6C[C@@H](O)CC[C@]6(C)[C@H]5CC[C@]34C)[C@@H](C)C2)o1 [Example 635, (R)-4-((3S,8S,9S,10R,13R,14S,17R)-3-hydroxy-10,13-dimethyl-2,3,4,7,8,9,10,11,12,13,14,15,16,17-tetradecahydro-1H-cyclopenta[a]phenanthren-17-yl)-1-((S)-2-methyl-4-(5-methyl-1,3,4-oxadiazol-2-yl)piperazin-1-yl)pentan-1-one]	< 0.25	> 10	–
C[C@H](CCc1ccns1)[C@H]1CC[C@H]2[C@@H]3CC=C4C[C@@H](O)CC[C@]4(C)[C@H]3CC[C@]12C [Example 183, (3S,8S,9S,10R,13R,14S,17R)-17-((R)-4-(isothiazol-5-yl)butan-2-yl)-10,13-dimethyl-2,3,4,7,8,9,10,11,12,13,14,15,16,17-tetradecahydro-1H-cyclopenta[a]phenanthren-3-ol]	0.25 to 1	> 10	–
C[C@H](CCC(=O)N1CCN(c2nnnn2C)CC1)[C@H]1CC[C@H]2[C@@H]3CC=C4C[C@@H](O)CC[C@]4(C)[C@H]3CC[C@]12C [Example 606, (R)-4-((3S,8S,9S,10R,13R,14S,17R)-3-hydroxy-10,13-dimethyl-2,3,4,7,8,9,10,11,12,13,14,15,16,17-tetradecahydro-1H-cyclopenta[a]phenanthren-17-yl)-1-(4-(1-methyl-1H-tetrazol-5-yl)piperazin-1-yl)pentan-1-one]	< 0.25	> 10	–
COc1cncnc1N1CCN(C(=O)CC[C@@H](C)[C@H]2CC[C@H]3[C@@H]4CC=C5C[C@@H](O)CC[C@]5(C)[C@H]4CC[C@]23C)[C@@H](C)C1 [Example 616, (R)-4-((3S,8S,9S,10R,13R,14S,17R)-3-hydroxy-10,13-dimethyl-2,3,4,7,8,9,10,11,12,13,14,15,16,17-tetradecahydro-1H-cyclopenta[a]phenanthren-17-yl)-1-((S)-4-(5-methoxypyrimidin-4-yl)-2-methylpiperazin-1-yl)pentan-1-one]	< 0.25	> 10	–
C[C@H](CCC(=O)N1CCN(C(=O)N2CCCC2)C[C@@H]1C)[C@H]1CC[C@H]2[C@@H]3CC=C4C[C@@H](O)CC[C@]4(C)[C@H]3CC[C@]12C [Example 655, (R)-4-((3S,8S,9S,10R,13R,14S,17R)-3-hydroxy-10,13-dimethyl-2,3,4,7,8,9,10,11,12,13,14,15,16,17-tetradecahydro-1H-cyclopenta[a]phenanthren-17-yl)-1-((S)-2-methyl-4-(pyrrolidine-1-carbonyl)piperazin-1-yl)pentan-1-one]	< 0.25	> 10	–
